This is an account of results in US4843087A (priority 1986, dated 1989).

For one experiment, the system named is Polio 2. The experiment can be described thus: microbe, parasite or virus in culture. Type of experiment: cell-based, poliovirus. The conditions noted are these: Enterovirus C, HeLa, read-out: Polio 2 MIC.
In experiment [1] the test system is human rhinovirus (HRV) serotypes. The experiment can be described thus: microbe, parasite or virus in culture. Type of experiment: cell-based. The conditions noted are these: for MIC50: read-out: Rhinovirus MIC50; for IC (MIC80 of serotype panel): read-out: Rhinovirus MIC80.

In brackets after ≈: the same amount, converted by molar mass. Some results are limits rather than exact numbers.

Turning to `Cc1cc(CCCCCOc2c(C)cc(-c3cocn3)cc2C)on1` [Example 144, 5-{5-[2,6-Dimethyl-4-(4-oxazolyl)phenoxy]pentyl}-3-methylisoxazole], the MIC in the experiment on Polio 2 came to 12.5 µg/mL (≈ 36.7 µM). Moreover, in experiment [1], the MIC50 worked out at 0.14 µg/mL (≈ 0.411 µM) and the IC (MIC80 of serotype panel) was 1.1 µg/mL.
Taken in the same sequence, the figures for `C=Cc1cc(C2=NCCO2)ccc1OCCCCCc1cc(C)no1` [Example 141, 5-{5-[2-Ethenyl-4-(4,5-dihydro-2-oxazolyl)phenoxy]pentyl}-3-methylisoxazole] were 0.23 µg/mL (≈ 0.676 µM), 0.25 µg/mL (≈ 0.734 µM) and 0.54 µg/mL.
As for `Cc1cc(CCCCCCCOc2ccc(C3=NC[C@@H](C)O3)cc2)on1` [Example 123, (R)-5-{7-[4-(4,5-Dihydro-5-methyl-2-oxazolyl)phenoxy]heptyl}-3-methylisoxazole], in the experiment with Polio 2, the MIC worked out at 1.01 µg/mL (≈ 2.83 µM).
For `Cc1cc(CCCCC[S+]([O-])c2ccc(C3=NCCO3)cc2)on1` (centres unmarked) [Example 104, 5-{5-[[4-(4,5-Dihydro-2-oxazolyl)phenyl]sulfinyl]pentyl}-3-methylisoxazole], the MIC in the experiment with Polio 2 worked out at 12.5 µg/mL (≈ 36.1 µM). Moreover, in experiment [1], the MIC50 is 9.85 µg/mL (≈ 28.4 µM) and the IC (MIC80 of serotype panel) was 12.5 µg/mL.
Consider `Cc1cc(CCCCCOc2ccc(C3=NCCO3)cc2Br)on1` [Example 44, 5-{5-[2-Bromo-4-(4,5-dihydro-2-oxazolyl)phenoxy]pentyl}-3-methylisoxazole], for which the MIC with Polio 2 was 0.3 µg/mL (≈ 0.763 µM). In experiment [1], the MIC50 came out at 0.08 µg/mL (≈ 0.203 µM) and the IC (MIC80 of serotype panel) came out at 0.54 µg/mL.
The like results for `Cc1cc(CCCCCOc2c(C)cc(-c3cnco3)cc2C)on1` [97(b), 5-{5-[2,6-Dimethyl-4-(5-oxazolyl)phenoxy]pentyl}-3-methylisoxazole] were, in that order, 5.4 µg/mL (≈ 15.9 µM), 0.135 µg/mL (≈ 0.397 µM) and 0.76 µg/mL.
Taken in the same sequence, the figures for `Cc1cc(CCCCCOc2ccc(C3=NCC(CO)O3)cc2)on1` (centres unmarked) [Example 75, 5-{5-[4-(4,5-Dihydro-5-hydroxymethyl-2-oxazolyl)phenoxyl]pentyl}-3-methylisoxazole] were 0.69 µg/mL (≈ 2 µM), 9.95 µg/mL (≈ 28.9 µM) and 35.2 µg/mL.
Consider `Cc1cc(CCCCCCCOc2ccc(C3=NCCO3)cc2C=O)on1` [Example 69, 5-{7-[4-(4,5-Dihydro-2-oxazolyl)-2-formylphenoxy]heptyl}-3-methylisoxazole], for which the MIC in the experiment on Polio 2 was found to be 0.44 µg/mL (≈ 1.19 µM).
With `Cc1cc(CCCCCOc2c(Cl)cc(C3=NCCO3)cc2[N+](=O)[O-])on1` [153(d), 5-{5-[2-Chloro-4-(4,5-dihydro-2-oxazolyl)-6-nitrophenoxy]pentyl}-3-methylisoxazole], the MIC in the experiment on Polio 2 was 0.4 µg/mL (≈ 1.02 µM). In addition, in experiment [1], the MIC50 is 0.09 µg/mL (≈ 0.229 µM) and the IC (MIC80 of serotype panel) was determined as 0.18 µg/mL.
As for `Cc1cc(CCC2CCC(COc3ccc(C4=NCCO4)cc3)CC2)on1` (centres unmarked) [101 (b), 5-{2-[4-[[4-(4,5-Dihydro-2-oxazolyl)phenoxy]methyl]cyclohexyl]ethyl}-3-methylisoxazole], the MIC with Polio 2 was found to be 0.65 µg/mL (≈ 1.76 µM).
With `Cc1cc(CCCCOc2ccc(C3=NCCO3)cc2Cl)on1` [Example 24, 5-{4-[2-Chloro-4-(4,5-dihydro-2-oxazolyl)phenoxy]butyl}-3-methylisoxazole], the MIC in the experiment on Polio 2 came to 1.7 µg/mL (≈ 5.08 µM). In addition, in experiment [1], the MIC50 came out at 0.087 µg/mL (≈ 0.26 µM) and the IC (MIC80 of serotype panel) came to 1.2 µg/mL.
With `CCc1cc(C2=NCCO2)cc(C)c1OCCCCCc1cc(C)no1` [157(d), 5-{5-[4-(4,5-Dihydro-2-oxazolyl)-2-ethyl-6-methylphenoxy]pentyl}-3-methylisoxazole], the MIC in the experiment on Polio 2 was 3.3 µg/mL (≈ 9.26 µM). Further, in experiment [1], the MIC50 is 1.25 µg/mL (≈ 3.51 µM) and the IC (MIC80 of serotype panel) stood at 2.5 µg/mL.
`Cc1cc(CCCCOc2ccc(C3=NCCO3)cc2)on1` [21 (b), 5-{4-[4-(4,5-Dihydro-2-oxazolyl)phenoxy]butyl}-3-methylisoxazole]: the MIC in the experiment with Polio 2 worked out at 0.5 µg/mL (≈ 1.66 µM).
For `Cc1cc(CCCCCOc2ccc(-c3ncco3)cc2Br)on1` [Example 92, 5-{5-[2-Bromo-4-(2-oxazolyl)phenoxy]pentyl}-3-methylisoxazole], the MIC in the experiment with Polio 2 was found to be 0.07 µg/mL (≈ 0.179 µM). Besides, in experiment [1], the MIC50 is 0.07 µg/mL (≈ 0.179 µM) and the IC (MIC80 of serotype panel) was found to be 0.61 µg/mL.
Consider `Cc1cc(CCCCCOc2ccc(-c3ncc(C)o3)cc2)on1` [93(f), 3-Methyl-5-{5-[4-(5-methyl-2-oxazolyl)phenoxy]pentyl}-isoxazole], for which the MIC in the experiment on Polio 2 turned out to be 0.09 µg/mL (≈ 0.276 µM). Besides, in experiment [1], the MIC50 was determined as 0.09 µg/mL (≈ 0.276 µM) and the IC (MIC80 of serotype panel) was determined as 1.3 µg/mL.
Take `Cc1cc(CCCCCOc2ccc(C3=NCCO3)cc2N(C)C)on1` [Example 100, 5-{5-[4-(4,5-Dihydro-2-oxazolyl)-2-(dimethylamino)phenoxy]pentyl}-3-methylisoxazole]: the MIC with Polio 2 worked out at 6.2 µg/mL (≈ 17.3 µM). In addition, in experiment [1], the MIC50 amounted to 0.76 µg/mL (≈ 2.13 µM) and the IC (MIC80 of serotype panel) is 99 µg/mL.
As to `Cc1cc(CCCCCOc2ccc(C3=NCCO3)c(Cl)c2)on1` [Example 47, 5-{5-[3-Chloro-4-(4,5-dihydro-2-oxazolyl)phenoxy]pentyl}-3-methylisoxazole], in the experiment with Polio 2, the MIC stood at 0.02 µg/mL (≈ 0.0573 µM). Moreover, in experiment [1], the MIC50 is 0.36 µg/mL (≈ 1.03 µM) and the IC (MIC80 of serotype panel) stood at 2.4 µg/mL.
In the case of `Cc1cc(CCCCCOc2ccc(C3=NCCO3)c(C)c2)on1` [Example 51, 5-{5-[4-(4,5-Dihydro-2oxazolyl)-3-methylphenoxy]pentyl}-3-methylisoxazole], in the experiment on Polio 2, the MIC stood at 0.045 µg/mL (≈ 0.137 µM). Moreover, in experiment [1], the MIC50 stood at 0.56 µg/mL (≈ 1.71 µM) and the IC (MIC80 of serotype panel) was 1.6 µg/mL.
The like results for `COC(=O)CCC(=O)OCc1cc(CCCCCOc2c(Cl)cc(C3=NCCO3)cc2Cl)on1` [Example 148, 5-{5-[2,6-Dichloro-4-(4,5-dihydro-2-oxazolyl)phenoxy]pentyl}-3-isoxazolylmethyl methyl butanedioate] were, in that order, 8.5 µg/mL (≈ 16.6 µM), 0.17 µg/mL (≈ 0.331 µM) and 0.45 µg/mL.
`OCc1cc(CCCCCCCOc2ccc(C3=NCCO3)cc2)on1` [Example 11, 5-{7-[4-(4,5-Dihydro-2-oxazolyl)phenoxy]heptyl}-3-isoxazolemethanol]: the MIC in the experiment on Polio 2 was 0.02 µg/mL (≈ 0.0558 µM).
`Cc1cc(CCCCCSc2ccc(C3=NCCO3)cc2)on1` [103(c), 5-{5-[[4-(4,5-Dihydro-2-oxazolyl)phenyl]thio]pentyl}-3-methylisoxazole]: in the experiment on Polio 2, the MIC stood at 0.37 µg/mL (≈ 1.12 µM). In addition, in experiment [1], the MIC50 turned out to be 0.57 µg/mL (≈ 1.72 µM) and the IC (MIC80 of serotype panel) was 27.1 µg/mL.
For `Cc1cc(C(O)CCCCCCOc2ccc(C3=NCCO3)cc2)on1` (stereo not drawn) [Example 12, α-{6-[4-(4,5-dihydro-2-oxazolyl)phenoxy]hexyl}-3-methyl-5-isoxazolemethanol], in the experiment on Polio 2, the MIC was 0.08 µg/mL (≈ 0.223 µM).
For `Cc1cc(CCCCCCc2ccc(C3=NCCO3)cc2)on1` [Example 142], the MIC in the experiment on Polio 2 is 0.37 µg/mL (≈ 1.18 µM). For the same compound, in experiment [1], the MIC50 was 0.26 µg/mL (≈ 0.832 µM) and the IC (MIC80 of serotype panel) was 6.2 µg/mL.
Regarding `Cc1cc(CCCCCOc2cccc(C3=NCCO3)c2)on1` [Example 30, 5-{5-[3-(4,5-Dihydro-2-oxazolyl)phenoxy]pentyl}-3-methylisoxazole], in the experiment with Polio 2, the MIC was more than 0.2 µg/mL.
For `Cc1noc(CCCCCCCOc2ccc(C3=NCCO3)cc2)c1CO` [29(b), 5-{7-[4-(4,5-Dihydro-2-oxazolyl)phenoxy]heptyl}-3-methyl-4-isoxazolemethanol], the MIC in the experiment with Polio 2 worked out at 0.02 µg/mL (≈ 0.0537 µM). Also, in experiment [1], the MIC50 was found to be 1.25 µg/mL (≈ 3.34 µM) and the IC (MIC80 of serotype panel) was determined as 1.7 µg/mL.
Consider `Cc1cc(CCCOc2c(Cl)cc(C3=NCCO3)cc2Cl)on1` [Example 115, 5-{3-[2,6-Dichloro-4-(4,5-dihydro-2-oxazolyl)phenoxy]propyl}-3-methylisoxazole], for which the MIC in the experiment with Polio 2 was 3.1 µg/mL (≈ 8.73 µM). Besides, in experiment [1], the MIC50 amounted to 0.04 µg/mL (≈ 0.113 µM) and the IC (MIC80 of serotype panel) was 0.58 µg/mL.
The like results for `Cc1cc(CCCCCOc2c(Cl)cc(C3=NCCO3)cc2Br)on1` [152(d), 5-{5-[2-Bromo-6-chloro-4-(4,5-dihydro-2-oxazolyl)phenoxy]pentyl}-3-methylisoxazole] were, in that order, 0.97 µg/mL (≈ 2.27 µM), 0.095 µg/mL (≈ 0.222 µM) and 0.23 µg/mL.
As to `Cc1cc(CCCCCCCCOc2ccc(C3=NCCO3)cc2Cl)on1` [Example 22, 5-{8-[2-Chloro-4-(4,5-dihydro-2-oxazolyl)phenoxy]octyl}-3-methylisoxazole], the MIC in the experiment on Polio 2 is 1.1 µg/mL (≈ 2.81 µM).
The same measure, in the same setting: under `Cc1cc(CCCOCOCCOc2ccc(C3=NCCO3)cc2)on1` [Example 73, 5-{3-[[2-[4-(4,5-Dihydro-2-oxazolyl)phenoxy]ethoxy]methoxy]propyl}-3-methylisoxazole] stands 0.46 µg/mL (≈ 1.28 µM); under `CC(=O)OCc1cc(CCCCCCCOc2ccc(C3=NCCO3)cc2)on1` [Example 28, 5-{7-[4-(4,5-Dihydro-2-oxazolyl)phenoxy]heptyl}-3-isoxazolemethanol acetate], 0.007 µg/mL; under `Cc1cc(CCCCCOc2ccc(C3=NCCO3)cc2Cl)no1` [Example 37, 3-{5-[2-Chloro-4-(4,5-dihydro-2-oxazolyl)phenoxy]pentyl}-5-methylisoxazole], 0.4 µg/mL (≈ 1.15 µM).
On the same count and under the same terms, in the case of `Cc1cc(CCCCCCCOc2ccc(-c3ncco3)cc2)on1` [87(b), 3-Methyl-5-{7-[4-(2-oxazolyl)phenoxy]heptyl}isoxazole] it was 0.04 µg/mL (≈ 0.118 µM).
Consider `Cc1cc(CCCCCCCOc2ccc(C3=N[C@H](C(C)C)CO3)cc2)on1` [Example 127, (R)-5-{7-[4-(4,5-Dihydro-4-isopropyl-2-oxazolyl)phenoxy]heptyl}-3-methylisoxazole], for which, in experiment [1], the MIC50 was found to be 0.76 µg/mL (≈ 1.98 µM) and the IC (MIC80 of serotype panel) turned out to be 1.4 µg/mL.
Taken in the same sequence, the figures for `Cc1cc(CCCCCCCOc2ccc(C3=N[C@@H](C)CO3)cc2)on1` [Example 4, (-)-5-{7-[4-(4,5-Dihydro-4-methyl-2oxazolyl)phenoxy]heptyl}-3-methylisoxazole] were 0.025 µg/mL (≈ 0.0701 µM) and 0.03 µg/mL.
For `CCCC[C@H]1COC(c2ccc(OCCCCCCCc3cc(C)no3)cc2)=N1` [Example 130, (S)-5-{7-[4-(4-Butyl-4,5-dihydro-2-oxazolyl)phenoxy]heptyl}-3-methylisoxazole], in experiment [1], the MIC50 stood at 1.08 µg/mL (≈ 2.71 µM) and the IC (MIC80 of serotype panel) was determined as 2.07 µg/mL.
Taken in the same sequence, the figures for `Cc1cc(CCCCOc2c(Cl)cc(-c3nc(C)c(C)o3)cc2Cl)on1` [Example 120, 5-{4-[2,6-Dichloro-4-(4,5-dimethyl-2-oxazolyl)phenoxy]butyl}-3-methylisoxazole] were 0.16 µg/mL (≈ 0.405 µM) and 0.67 µg/mL.
